The values below come from patent publication US6977254B2, “Hydroxy cyclohexenyl phenyl carboxamides tocolytic oxytocin receptor antagonists” (Wyeth, priority 2001, dated 2005).

The target of the first experiment is T1, human oxytocin receptor (Homo sapiens, UniProt P30559).
T1 construct: host or cells: CHO cells, stably transfected (pcDNA3.1 vector); membranes
T1 sequence (P30559 1-389): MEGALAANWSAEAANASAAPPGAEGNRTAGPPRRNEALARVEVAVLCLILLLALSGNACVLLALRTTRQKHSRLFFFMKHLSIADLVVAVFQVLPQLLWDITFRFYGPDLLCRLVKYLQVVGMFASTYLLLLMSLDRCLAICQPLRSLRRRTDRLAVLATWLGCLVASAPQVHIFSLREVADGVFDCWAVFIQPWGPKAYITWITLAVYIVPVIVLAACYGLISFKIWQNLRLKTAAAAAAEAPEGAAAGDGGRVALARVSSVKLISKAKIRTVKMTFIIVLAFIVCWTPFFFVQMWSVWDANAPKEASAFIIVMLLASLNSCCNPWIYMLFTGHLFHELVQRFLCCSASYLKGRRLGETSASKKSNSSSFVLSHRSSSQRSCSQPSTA
The experiment is described as follows: Oxytocin binding in CHO cell membranes expressing human oxytocin receptors ([3H]oxytocin radioligand). Conditions: 100 nM, value without parentheses. From the text: Oxytocin binding in Chinese Hamster Ovary cell membranes expressing human oxytocin receptors
Chinese Hamster Ovary (CHO) cells stably transfected with the human oxytocin (cf. T. Kimura et al., U.S. Pat. No. 5,466,584 (1995) to Rohto Pharmaceutical Co. Ltd., Osaka, Japan) were obtained from Dr. M. Thibonnier, Case Western Reserve University School of Medicine, Cleveland, Ohio.
A. Passaging and Amplification of Cells:
CHO cells transfected with the human oxytocin receptors obtained from M. Thibonnier (pcDNA3.1 vector) are allowed to grow to confluency (approx. >90%) in T-150 flasks under sterile conditions, in a cell culture medium of F-12 Nutrient Mixture (HAM) with L-glutamine (Gibco Cat. #11765-054) containing 15 mM HEPES (Gibco Cat. #15630-080), 1% antibiotic/antimycotic (add 5 mL 100×, Gibco Cat. #15240-062 per 500 mL F-12), 400 μg/mL of Geneticin (add 4 mL of 50 mg/mL per 500 mL F-12) and 10% Fetal Bovine Serum (Qualified, heat inactivated, Gibco Cat. #16140-063). The medium is removed by aspiration and the cells are washed with 10 mL of Hank's Balanced Salt solution (Gibco Cat. #14175-095). The salt solution is removed by aspiration and the cells trypsinized with 5 mL of trypsin-EDTA (0.05% trypsin, 0.53 mM EDTA-4Na, Gibco Cat. #25300-070) for 1 min The trypsin is removed by aspiration and the cells dislodged by tapping. Cell Culture medium (e.g. 30 mL for 1:30 split) is immediately added and mixed well to inactivate trypsin. 1 mL of detached cells is added to new culture flasks containing fresh Cell Culture medium (e.g. into 25 mL per T-150 flask), and mixed gently. The cells are incubated at 37° C. in 5% CO2. The medium is changed at 3 to 4 days interval (or as appropriate). The cells grow to confluency (approx. >75%-95%) within 7-8 days. All steps are done under sterile conditions.
The cells are washed twice gently with Hank's Balanced Salt solution (eg, use 10 mL per T-150 flask). The excess is removed and the cells bathed for 15-30 min. in an enzyme-free Cell Dissociation Buffer (eg, use 8 mL Hank's Based, Gibco Cat. #13150-016 per T-150 flask) until cells are loosened. The contents are transferred to centrifuge tubes (50 mL size) kept in ice bath. All subsequent steps are done at 4° C. The tubes are centrifuged at 300×g for 15 min (1380 rpm on SORVAL, Model RT6000D, using rotor for 50 mL tubes). The supernatant is discarded and the cells suspended in homogenizing buffer (10 mM Tris-HCl containing 0.25 M sucrose and 1 mM EDTA, pH 7.4) ensuring that the volume of the buffer is about ten times the volume of the cell pellet. The cells are pooled into a centrifuge tube (50 mL) and homogenized with Polytron at setting 6 for 10 sec. The homogenate is transferred into a Potter-Elvjehm homogenizer and homogenized with 3 strokes. The homogenate is centrifuged at 1500×g for 10 min at 4° C. (3100 rpm using SORVAL, model RT6000D, using rotor for 50 mL tubes). The pellet is discarded. The supernatant is centrifuged at 100,000×g for 60 min. at 4° C. (Beckman L8-80M ultracentrifuge; spin at 37,500 rpm with rotor type 70 Ti for 50 mL tubes; 38,000 rpm with type 80Ti for 15 mL tubes; or 35,800 rpm with rotor type 45Ti). The supernantant is discarded and the pellet suspended in 3 to 4 mL of Tris buffer (50 mM TRIS-HCl, pH 7.4). The protein content is estimated by the Bradford or Lowry method. The volume of the membrane suspension is adjusted with the membrane buffer (50 mM Tris-HCl containing 0.1% BSA and 0.1 mM PMSF) to give 3.0 mg/mL (or as appropriate) of protein. The membranes are aliquoted and stored at −70° C.
C. Radioligand Binding Assay:
In wells of a 96-well format microtiter plate, is added 90, 110 or 130 μL (to make up a final volume of 200 μL) of assay buffer containing 50 mM of Tris-HCl (pH 7.4), […], 1 mg % aprotinin, 1 mg % leupeptin, 2 mg % 1,10-phenanthroline, 10 mg % trypsin inhibitor, and 0.1 mM PMSF. The inhibitors are added on the day of the experiment. […]
Take `Cc1cc(C(=O)N2Cc3ccc(C(=O)C(Cl)(Cl)Cl)n3Cc3ccccc32)ccc1C1=CCCCC1` [Example 5D, 2,2,2-Trichloro-1-[10-(4-cyclohex-1-en-1-yl-3-methyl-benzoyl)-10,11-dihydro-5H-pyrrolo[2,1-c][1,4]benzodiazepin-3-yl]-methanone]: the “OT % inhibition @ 100 nM” value was found to be 10%.

For the compound `Cc1cc(C(=O)N2Cc3ccc(C(=O)N[C@@H](Cc4ccc(O)cc4)C(=O)O)n3Cc3ccccc32)ccc1C1=CCCCC1` [Example 10], the “OT % inhibition @ 100 nM” value amounted to 54%.

The same experiment, now with this note: 100 nM, value without parentheses, read-out: OT % inhibition @ 100 nM.
What is called inhibition is the share of the control response that was lost under treatment. In the case of `COc1cc(C2=CCCCC2)c(Cl)cc1C(=O)N1Cc2ccc(C(=O)O)n2Cc2ccccc21` [Example 1G, 10-(5-Chloro-4-cyclohex-1-en-1-yl-2-methoxybenzoyl)-10,11-dihydro-5H-pyrrolo[2,1-c][1,4]benzodiazepine-3-carboxylic acid], the inhibition at 0.1 µM stood at 21%. Same read-out and setting: the value for `Cc1cc(C(=O)N2Cc3ccc(C(=O)O)n3Cc3ccccc32)ccc1C1=CCCCC1` [Example 5E, 10-(4-Cyclohex-1-en-1-yl-3-methyl-benzoyl)-10,11-dihydro-5H-pyrrolo[2,1-c][1,4]benzodiazepine-3-carboxylic acid] was 26%; that for `Cc1cc(C(=O)N2Cc3ccc(C(=O)N(C)C[C@@H]4OC(=O)O[C@H]4[C@H](O)[C@H]4COC(=O)O4)n3Cc3ccccc32)ccc1C1=CCCCC1` [Example 7, 10-(4-Cyclohex-1-en-1-yl-3-methylbenzoyl)-N-[((4S,5S)-5-{(R)-hydroxy[(4R)-2-oxo-1,3-dioxolan-4-yl]methyl}-2-oxo-1,3-dioxolan-4-yl)methyl]-N-methyl-10,11-dihydro-5H-pyrrolo[2,1-c][1,4]benzodiazepine-3-carboxamide] was 99%. On the same count and under the same terms, the value for `CCOC(=O)[C@H](Cc1ccc(O)cc1)NC(=O)c1ccc2n1Cc1ccccc1N(C(=O)c1ccc(C3=CCCCC3)c(C)c1)C2` [Example 9, (2S)-2-{[10-(4-Cyclohex-1-en-1-yl-3-methyl-benzoyl)-10,11-dihydro-5H-pyrrolo[2,1-c][1,4]benzodiazepine-3-carbonyl]-amino}-3-(4-hydroxy-phenyl)-propionic acid ethyl ester] was 23%. As to `Cc1cc(C(=O)N2Cc3ccc(C(=O)N[C@@H](CO)C(=O)O)n3Cc3ccccc32)ccc1C1=CCCCC1` [Example 13, (2S)-2-{[10-(4-Cyclohex-1-en-1-yl-3-methyl-benzoyl)-10,11-dihydro-5H-pyrrolo[2,1-c][1,4]benzodiazepine-3-carbonyl]-amino}-3-hydroxy-propionic acid], the inhibition at 0.1 µM amounted to 63%.

The experiment is the same for the next values; noted with them: value in parentheses, read-out: OT (IC50).
Broadly, the IC50 is the midpoint of a concentration-inhibition curve. Regarding `COc1cc(C2=CCCCC2)c(Cl)cc1C(=O)N1Cc2ccc(C(=O)N(C)C[C@H](O)[C@@H](O)[C@H](O)[C@H](O)CO)n2Cc2ccccc21` [Example 1, 1-[[[10-[5-Chloro-4-(1-cyclohex-1-en-1-yl)-2-methoxybenzoyl]-10,11-dihydro-5H-pyrrolo[2,1-c][1,4]benzodiazepin-3-yl]carbonyl]methylamino]-1-deoxy-D-glucitol], the IC50 amounted to 0.98 nM.

For `COC[C@@H](OC)[C@@H](OC)[C@H](OC)[C@H](CN(C)C(=O)c1ccc2n1Cc1ccccc1N(C(=O)c1cc(Cl)c(C3=CCCCC3)cc1OC)C2)OC` [Example 2, 10-(5-Chloro-4-cyclohex-1-en-1-yl-2-methoxybenzoyl)-N-methyl-N-[(2S,3R,4R,5R)-2,3,4,5,6-pentamethoxyhexyl]-10,11-dihydro-5H-pyrrolo[2,1-c][1,4]benzodiazepine-3-carboxamide], the IC50 is 19.6 nM.

As to `COc1cc(C2=CCCCC2)c(Cl)cc1C(=O)N1Cc2ccc(C(=O)N(C)C[C@@H]3OC(=O)O[C@H]3[C@H](O)[C@H]3COC(=O)O3)n2Cc2ccccc21` [Example 3, 10-(5-Chloro-4-cyclohex-1-en-1-yl-2-methoxybenzoyl)-N-[((4S,5S)-5-{(R)-hydroxy[(4R)-2-oxo-1,3-dioxolan-4-yl]methyl}-2-oxo-1,3-dioxolan-4-yl)methyl]-N-methyl-10,11-dihydro-5H-pyrrolo[2,1-c][1,4]benzodiazepine-3-carboxamide], the IC50 was determined as 4.92 nM. The same measure, in the same setting: the result for `COc1cc(C2=CCCCC2)c(Cl)cc1C(=O)N1Cc2ccc(C(=O)N(C)CC(O)CO)n2Cc2ccccc21` (stereo not shown) [Example 4, 10-(5-Chloro-4-cyclohex-1-en-1-yl-2-methoxybenzoyl)-N-(2,3-dihydroxypropyl)-N-methyl-10,11-dihydro-5H-pyrrolo[2,1-c][1,4]benzodiazepine-3-carboxamide] reads 2.07 nM; that for `Cc1cc(C(=O)N2Cc3ccc(C(=O)N(C)C[C@H](O)[C@@H](O)[C@H](O)[C@H](O)CO)n3Cc3ccccc32)ccc1C1=CCCCC1` [Example 5], 2.15 nM.

Regarding `Cc1cc(C(=O)N2Cc3ccc(C(=O)N(C)C[C@H](O)[C@H]4OC(=O)O[C@@H]4[C@H](O)CO)n3Cc3ccccc32)ccc1C1=CCCCC1` [Example 6, 10-(4-Cyclohex-1-en-1-yl-3-methylbenzoyl)-N-((2S)-2-{(4R,5R)-5-[(1R)-1,2-dihydroxyethyl]-2-oxo-1,3-dioxolan-4-yl}-2-hydroxyethyl)-N-methyl-10,11-dihydro-5H-pyrrolo[2,1-c][1,4]benzodiazepine-3-carboxamide], the IC50 worked out at 0.96 nM. Still for that read-out and setting: the result for `COC[C@@H](OC)[C@@H](OC)[C@H](OC)[C@H](CN(C)C(=O)c1ccc2n1Cc1ccccc1N(C(=O)c1ccc(C3=CCCCC3)c(C)c1)C2)OC` [Example 8, 10-(4-Cyclohex-1-en-1-yl-3-methylbenzoyl)-N-methyl-N-[(2S,3R,4R,5R)-2,3,4,5,6-pentamethoxyhexyl]-10,11-dihydro-5H-pyrrolo[2,1-c][1,4]benzodiazepine-3-carboxamide] reads 13 nM; that for `COC(=O)[C@H](CO)NC(=O)c1ccc2n1Cc1ccccc1N(C(=O)c1ccc(C3=CCCCC3)c(C)c1)C2` [Example 11, (2S)-2-{[10-(4-Cyclohex-1-en-1-yl-3-methyl-benzoyl)-10,11-dihydro-5H-pyrrolo[2,1-c][1,4]benzodiazepine-3-carbonyl]-amino}-3-hydroxy-propionic acid methyl ester], 76.2 nM. As to `COC(=O)[C@@H](CO)NC(=O)c1ccc2n1Cc1ccccc1N(C(=O)c1ccc(C3=CCCCC3)c(C)c1)C2` [Example 12, (2R)-2-{[10-(4-Cyclohex-1-en-1-yl-3-methyl-benzoyl)-10,11-dihydro-5H-pyrrolo[2,1-c][1,4]benzodiazepine-3-carbonyl]-amino}-3-hydroxy-propionic acid methyl ester], the IC50 came out at 47.1 nM.
